Like-named read-outs stand apart in the source and are kept apart here.
What was measured:
Format in all cases: in vivo
[1] = system: Okra Jassids (Amrasca bigutulla bigutulla); details: for Percent control (%) of Okra Jassids, Nymphs + Adults, A01: A01 = 1 day after first spray; for Percent control (%) of Okra Jassids, Nymphs + Adults, A10: A10 (after 1st spray); for Percent control (%) of Okra Jassids, Nymphs + Adults, B03: B03 = 3 days after 2nd spray; for Percent control (%) of Okra Jassids, Nymphs + Adults, B07: B07 (after 2nd spray); for Percent control (%) of Okra Jassids, Nymphs + Adults, B10: B10 (after 2nd spray); for Percent control (%) of Okra Jassids, Nymphs + Adults, B14: B14 (after 2nd spray); for Percent control (%) of Okra Jassids, Nymphs + Adults, C03: C03 = 3 days after third spray; for Percent control (%) of Okra Jassids, Nymphs + Adults, C10: C10 (after third spray)
Text: (§1) In this evaluation, feeding damage & insect population on Okra Leaves before and after sprays is averaged and analyzed for the test of significance. Application method: Three applications (application A, B and C) within an interval of 14 days.

[2] = system: Okra Aphids (Aphis gossypii); details: for Percent control (%) of Okra Aphids, Nymphs + Adults, A01: A01 = 1 day after first spray; for Percent control (%) of Okra Aphids, Nymphs + Adults, A10: A10 (after 1st spray); for Percent control (%) of Okra Aphids, Nymphs + Adults, B03: B03 = 3 days after 2nd spray; for Percent control (%) of Okra Aphids, Nymphs + Adults, B07: B07 (after 2nd spray); for Percent control (%) of Okra Aphids, Nymphs + Adults, B10: B10 (after 2nd spray); for Percent control (%) of Okra Aphids, Nymphs + Adults, C03: C03 = 3 days after third spray; for Percent control (%) of Okra Aphids, Nymphs + Adults, C10: C10 (after third spray)
Text: as §1

Okra Mites = test: Trials on controlling Okra Mites post 2nd and 3rd application (Example 2); details: doses gm/ha: OSA 625 + Flonicamid 50 / Acetamipirid 50 / Lancer Gold 650, solo OSA 1250, Flonicamid 75, Acetamipirid 50, Lancer gold 650; for Percent control Mean: Mean of B07, C-01, C-10
Description: Trials were conducted to test the efficacy of the combination of Flonicamid and Orthosilicic acid on controlling Okra Mites at different dosages post 2nd and 3rd application.

Okra Aphids = test: Trials of Flonicamid and Orthosilicic acid on controlling Okra Aphids (Example 1); details: doses gm/ha: OSA + Flonicamid 625 + 50, Flonicamid 75, OSA 1250
Description: Trials were conducted to test the efficacy of the combination of Flonicamid and Orthosilicic acid on controlling Okra Aphids at different dosages.

[3] = 25% reduced dose rate, gm a.i./ha: OSA 25, Flonicamid 75, Acephate+Imidacloprid 390, Flonicamid+Fipronil 75+37.5, Imidacloprid 18.3, Acetamiprid 11.2
[4] = doses gm a.i./ha: OSA 25, Flonicamid 100, Acephate+Imidacloprid 520, Flonicamid+Fipronil 100+50, Imidacloprid 24.5, Acetamiprid 15
[5] = reduced insecticide dose, gm a.i./ha: OSA 25, Flonicamid (Ulala) 75, Acephate+Imidacloprid 390, Flonicamid+Fipronil 75+37.5, Imidacloprid 18.3, Acetamiprid 11.2

SMILES: C/C(=N\C#N)N(C)Cc1ccc(Cl)nc1 [Acetamipirid, Acetamiprid]
- Percent control (%) of Okra Jassids, Nymphs + Adults, A01 [1, 3]: 59.3%
- Percent control (%) of Okra Jassids, Nymphs + Adults, A01 [1, 4]: 66.4%
- Percent control (%) of Okra Jassids, Nymphs + Adults, A10 [1, 3]: 64.4%
- Percent control (%) of Okra Jassids, Nymphs + Adults, A10 [1, 4]: 72.4%
- Percent control (%) of Okra Jassids, Nymphs + Adults, B03 [1, 3]: 68.8%
- Percent control (%) of Okra Jassids, Nymphs + Adults, B03 [1, 4]: 73.9%
- Percent control (%) of Okra Jassids, Nymphs + Adults, B07 [1, 3]: 70.9%
- Percent control (%) of Okra Jassids, Nymphs + Adults, B07 [1, 4]: 76.7%
- Percent control (%) of Okra Jassids, Nymphs + Adults, B10 [1, 3]: 71.3%
- Percent control (%) of Okra Jassids, Nymphs + Adults, B10 [1, 4]: 76.9%
- Percent control (%) of Okra Jassids, Nymphs + Adults, B14 [1, 3]: 66.6%
- Percent control (%) of Okra Jassids, Nymphs + Adults, B14 [1, 4]: 70.9%
- Percent control (%) of Okra Jassids, Nymphs + Adults, C03 [1, 3]: 69.5%
- Percent control (%) of Okra Jassids, Nymphs + Adults, C03 [1, 4]: 74.8%
- Percent control (%) of Okra Jassids, Nymphs + Adults, C10 [1, 3]: 70.7%
- Percent control (%) of Okra Jassids, Nymphs + Adults, C10 [1, 4]: 79.3%
- Percent control (%) of Okra Aphids, Nymphs + Adults, A01 [2, 4]: 71.1%
- Percent control (%) of Okra Aphids, Nymphs + Adults, A01 [2, 5]: 64.8%
- Percent control (%) of Okra Aphids, Nymphs + Adults, A10 [2, 4]: 86.1%
- Percent control (%) of Okra Aphids, Nymphs + Adults, A14 ([2]; A14 = 14 days after 1st spray, reduced insecticide dose, gm a.i./ha: OSA 25, Flonicamid (Ulala) 75, Acephate+Imidacloprid 390, Flonicamid+Fipronil 75+37.5, Imidacloprid 18.3, Acetamiprid 11.2): 74.7%
- Percent control (%) of Okra Aphids, Nymphs + Adults, B03 [2, 4]: 86.8%
- Percent control (%) of Okra Aphids, Nymphs + Adults, B03 [2, 5]: 79.7%
- Percent control (%) of Okra Aphids, Nymphs + Adults, B07 [2, 4]: 86.7%
- Percent control (%) of Okra Aphids, Nymphs + Adults, B07 [2, 5]: 81.8%
- Percent control (%) of Okra Aphids, Nymphs + Adults, B10 [2, 4]: 85%
- Percent control (%) of Okra Aphids, Nymphs + Adults, B10 [2, 5]: 82.5%
- Percent control (%) of Okra Aphids, Nymphs + Adults, C03 [2, 4]: 87.4%
- Percent control (%) of Okra Aphids, Nymphs + Adults, C03 [2, 5]: 86.9%
- Percent control (%) of Okra Aphids, Nymphs + Adults, C10 [2, 4]: 87.6%
- Percent control (%) of Okra Aphids, Nymphs + Adults, C10 [2, 5]: 86.5%
- Percent control B07 (Okra Mites): 24.6%
- Percent control C-01 (Okra Mites): 26.9%
- Percent control C-10 (Okra Mites): 22.2%
- Percent control Mean (Okra Mites): 24.56%

SMILES: N#CCNC(=O)c1cnccc1C(F)(F)F [Flonicamid, N-cyanomethyl-4-trifluoromethylnicotinamide]
- Percent control B01 (Okra Aphids; B01): 88.8%
- Percent control C-01 (Okra Aphids; C-01): 91.8%
- Percent control C-10 (Okra Aphids; C-10): 96%
- Percent control Mean (Okra Aphids; Mean of B01, C-01, C-10): 92.2%
- Percent control (%) of Okra Jassids, Nymphs + Adults, A01 [1, 3]: 71.2%
- Percent control (%) of Okra Jassids, Nymphs + Adults, A01 [1, 4]: 74.8%
- Percent control (%) of Okra Jassids, Nymphs + Adults, A10 [1, 3]: 85.8%
- Percent control (%) of Okra Jassids, Nymphs + Adults, A10 [1, 4]: 89.3%
- Percent control (%) of Okra Jassids, Nymphs + Adults, B03 [1, 3]: 82%
- Percent control (%) of Okra Jassids, Nymphs + Adults, B03 [1, 4]: 90.7%
- Percent control (%) of Okra Jassids, Nymphs + Adults, B07 [1, 3]: 89.3%
- Percent control (%) of Okra Jassids, Nymphs + Adults, B07 [1, 4]: 93.3%
- Percent control (%) of Okra Jassids, Nymphs + Adults, B10 [1, 3]: 91.5%
- Percent control (%) of Okra Jassids, Nymphs + Adults, B10 [1, 4]: 94.2%
- Percent control (%) of Okra Jassids, Nymphs + Adults, B14 [1, 3]: 87.4%
- Percent control (%) of Okra Jassids, Nymphs + Adults, B14 [1, 4]: 89.3%
- Percent control (%) of Okra Jassids, Nymphs + Adults, C03 [1, 3]: 90.2%
- Percent control (%) of Okra Jassids, Nymphs + Adults, C03 [1, 4]: 93.3%
- Percent control (%) of Okra Jassids, Nymphs + Adults, C10 [1, 3]: 92.5%
- Percent control (%) of Okra Jassids, Nymphs + Adults, C10 [1, 4]: 94.4%
- Percent control (%) of Okra Aphids, Nymphs + Adults, A01 [2, 4]: 78.2%
- Percent control (%) of Okra Aphids, Nymphs + Adults, A10 [2, 4]: 91.9%
- Percent control (%) of Okra Aphids, Nymphs + Adults, B03 [2, 4]: 95.1%
- Percent control (%) of Okra Aphids, Nymphs + Adults, B07 [2, 4]: 95.5%
- Percent control (%) of Okra Aphids, Nymphs + Adults, B10 [2, 4]: 93%
- Percent control (%) of Okra Aphids, Nymphs + Adults, C03 [2, 4]: 94.7%
- Percent control (%) of Okra Aphids, Nymphs + Adults, C10 [2, 4]: 94.9%
- Percent control B07 (Okra Mites): 31.8%
- Percent control C-01 (Okra Mites): 39.5%
- Percent control C-10 (Okra Mites): 34.0%
- Percent control Mean (Okra Mites): 35.1%

— US20220322673A1, “Novel Agrochemical Combinations” (UPL LIMITED, priority 2019, published 2022)
